Data reported in patent US9433609B2, “Benzimidazole-imidazole derivatives” (Janssen Sciences Ireland UC, priority 2009, dated 2016).
pEC50: −log10 of the molar value.

Assays:
[1] = tested on: HCV genotype 1b replicon with NS5A R30H; experiment: Transient HCV 1b replicon assay, NS5A mutant R30H; assay type: cell-based; settings: Hepatitis C virus, read-out: EC50 R30H
Text: In a transient set-up, a Huh-7 lunet hepatoma cell line was transiently transfected with an autonomously replicating RNA encoding a bi-cistronic expression construct. This construct comprises a firefly luciferase reporter gene preceding the NS3-NS5B subgenomic region of HCV (genotype 1a H77 or 1b Con1). Translation of the HCV subgenomic region is mediated by an internal ribosome entry site of encephalomyocarditis virus. The construct is furthermore flanked by 5′ and 3′ untranslated regions of HCV (genotype 1a H77 or 1b Con 1, respectively), which allow for replication of the RNA.
In addition to the wild-type constructs, site-directed mutations were introduced into the transient HCV genotype 1b replicon in the gene encoding for the non-structural protein 5A (NS5A). More precisely, amino acid residues 28, 30, 31 and 93 in NS5A were independently altered.
Cells were plated in 384 well plates in the presence of test and control compounds, which were added in various concentrations. Following an incubation of two days, replication of the HCV subgenomic replicon RNA was measured by assaying luciferase activity (using standard luciferase assay substrates and reagents and a Perkin Elmer ViewLux™ ultraHTS microplate imager). […] The inhibitory activity of the compound was monitored, enabling a dose-response curve for each test compound. […]

[2] = Counterscreen MT4-LTR-Luc; assay type: cell-based; settings: human
Text: Counterscreen cell lines included a Huh-7 hepatoma cell line containing a human cytomegalovirus major immediate-early promoter-Luc construct (Huh7-CMV-Luc) and an MT4 T-cell line containing a long terminal repeat-Luc reporter (MT4-LTR-Luc).

For `COC(=O)N[C@H](C(=O)N1CCC[C@H]1c1ncc(-c2ccc(-c3ccc4nc([C@@H]5CCCN5C(=O)[C@@H](NC(=O)OC)C(C)C)[nH]c4c3)cc2)[nH]1)C(C)C` [Compound 1], the pEC50 [1] was 9.22 and the CC50 [2] was > 984 nM.
